# Like-named read-outs stand apart in the source and are kept apart here.
# What was measured:
# [1] = target: T1, human recombinant 5-HT2A receptor (Homo sapiens, UniProt P28223); experiment: Test Example 1-2: 5-HT2A receptor binding inhibition test ([3H]-Ketanserin; non-specific ligand Ketanserin)
# T1 construct: expressed in transfected cells; host or cells: Jump-In HEK cells (membrane preparation)
# How it was run: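 Ki values were derived from dose-response inhibition of [3H]-ketanserin binding; nonspecific binding was set with 500 µmol/L ketanserin, and Kd was set for each membrane lot from Scatchard saturation plots. Incubation lasted 1.5 h at room temperature (25 °C). Bound radioligand was harvested on Tris-HCl (pH 7.4)-presoaked filters and counted.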
# [2] = target: T2, human recombinant 5-HT2C receptor (Homo sapiens, UniProt P28335); experiment: Test Example 2: 5-HT2C receptor binding inhibition test ([3H]-Mesulergine; non-specific ligand Serotonin HCl); details: human serotonin 5-HT2C receptor binding activity
# T2 construct: expressed in transfected cells; host or cells: Jump-In HEK cells (membrane preparation)
# T2 sequence (P28335 33-458): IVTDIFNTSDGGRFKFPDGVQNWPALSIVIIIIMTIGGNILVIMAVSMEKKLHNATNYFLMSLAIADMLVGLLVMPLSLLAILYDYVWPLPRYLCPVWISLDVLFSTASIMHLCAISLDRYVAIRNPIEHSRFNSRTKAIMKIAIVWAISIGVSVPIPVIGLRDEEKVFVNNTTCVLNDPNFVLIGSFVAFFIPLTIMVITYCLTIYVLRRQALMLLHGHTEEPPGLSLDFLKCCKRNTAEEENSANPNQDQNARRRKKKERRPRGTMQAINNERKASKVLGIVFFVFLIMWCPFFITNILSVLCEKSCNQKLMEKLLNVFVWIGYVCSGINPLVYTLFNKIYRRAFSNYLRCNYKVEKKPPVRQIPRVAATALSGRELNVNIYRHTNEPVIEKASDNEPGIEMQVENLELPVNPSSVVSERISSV
# How it was run: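 Ki values come from dose-response curves of [3H]-mesulergine displacement from human 5-HT2C membranes after 2 h at 37°C, scored by scintillation counting of filter-bound radioactivity. Serotonin HCl (500 µmol/L) set non-specific binding; Kd per membrane lot was taken from Scatchard plots.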
# [3] = [3H]-Ketanserin, non-specific binding with 500 µmol/L Ketanserin, room temperature (25°C), 1.5 hours, read-out: h 5-HT2A Ki
# T1 sequence (P28223 whole entry): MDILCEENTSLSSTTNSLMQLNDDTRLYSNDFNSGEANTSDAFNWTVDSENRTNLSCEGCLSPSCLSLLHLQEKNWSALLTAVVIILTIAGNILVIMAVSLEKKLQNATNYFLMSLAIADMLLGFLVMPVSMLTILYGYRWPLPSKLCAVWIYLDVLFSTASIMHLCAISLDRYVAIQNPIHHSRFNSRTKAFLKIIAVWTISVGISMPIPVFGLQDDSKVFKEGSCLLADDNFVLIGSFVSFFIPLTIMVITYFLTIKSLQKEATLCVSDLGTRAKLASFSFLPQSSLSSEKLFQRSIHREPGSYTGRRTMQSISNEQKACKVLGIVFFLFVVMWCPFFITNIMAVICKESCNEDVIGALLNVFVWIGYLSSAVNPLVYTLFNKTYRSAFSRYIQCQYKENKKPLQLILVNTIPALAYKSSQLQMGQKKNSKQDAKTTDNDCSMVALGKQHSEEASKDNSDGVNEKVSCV
Compound,"Ki [1, 3] [nM]",Ki [2] [nM],Ki [1] [nM]
COCc1nc(C)c(-c2cc(Nc3ncc(-c4ccc(F)c(Cl)c4)cc3Cl)ncc2OCCO)c(C)n1 [Compound I-255],0.52,0.36,
COCc1nc(C)c(-c2cc(Nc3ncc(-c4ccc(F)cc4F)cc3Cl)ncc2OCCO)c(C)n1 [Compound I-256],0.5,0.322,
COCc1nc(C)c(-c2cc(Nc3ncc(-c4cccc(F)c4)cc3Cl)ncc2OCCO)c(C)n1 [Compound I-257],0.395,0.316,
COCc1nc(C)c(-c2cc(Nc3ncc(-c4cc(F)cc(F)c4)cc3Cl)ncc2OCCO)c(C)n1 [Compound I-258],0.933,0.301,
COCc1nc(C)c(-c2cc(Nc3ncc(-c4cccc(F)c4F)cc3Cl)ncc2OCCO)c(C)n1 [Compound I-259],0.672,0.623,
COCc1nc(C)c(-c2cc(Nc3ncc(-c4cccc(C#N)c4)cc3Cl)ncc2OCCO)c(C)n1 [Compound I-260],2.05,2.06,
COCc1nc(C)c(-c2cc(Nc3ncc(-c4ccc(OC(F)F)cc4)cc3Cl)ncc2OCCO)c(C)n1 [Compound I-261],0.608,0.482,
COCc1nc(C)c(-c2cc(Nc3ncc(-c4cccc(C(F)F)c4)cc3Cl)ncc2OCCO)c(C)n1 [Compound I-262],0.558,0.541,
COCc1nc(C)c(-c2cc(Nc3ncc(-c4ccc(Cl)cc4F)cc3Cl)ncc2OCCO)c(C)n1 [Compound I-263],0.577,0.318,
COCc1ccc(-c2cnc(Nc3cc(-c4c(C)nc(COC)nc4C)c(OCCO)cn3)c(Cl)c2)cc1 [Compound I-264],0.752,0.709,
COCc1nc(C)c(-c2cc(Nc3ncc(-c4ccc(C#N)c(F)c4)cc3Cl)ncc2OCCO)c(C)n1 [Compound I-265],0.972,0.47,
COCc1nc(C)c(-c2cc(Nc3ncc(OC(C)(F)F)cc3Cl)ncc2OCCO)c(C)n1 [Compound I-266],1.88,2.24,
Cc1nc(C)c(-c2nc(Nc3ccc(OC(F)F)cc3)c(F)cc2OCCO)c(C)n1 [Compound I-268],0.958,0.589,
Cn1ncc(Br)c1-c1cc(Nc2ncc(OC(F)(F)F)cn2)cnc1OCCO [Compound I-269],0.295,2.85,
Cc1nc(C)c(-c2cc(Nc3ncc(OC(F)(F)F)cc3Cl)ncc2OCCO)c(C)n1 [Compound I-270],0.938,2.74,
COCc1nc(C)c(-c2cc(Nc3ccc(-c4ccc(F)cc4)cn3)ncc2OCCO)c(C)n1 [Compound I-272],0.343,1.4,
COCc1nc(C)c(-c2cc(Nc3ccc(-c4ccc(Cl)cc4)cn3)ncc2OCCO)c(C)n1 [Compound I-273],0.309,0.395,
Cn1ncc(Br)c1-c1cc(Nc2ncc(Cl)cn2)ncc1OCCO [Compound I-274],0.219,4.5,
Cn1ncc(Br)c1-c1cc(Nc2cc(C(F)(F)F)c(Cl)cn2)ncc1OCCO [Compound I-275],0.273,0.722,
Cn1ncc(Br)c1-c1nc(Nc2ccc(C(F)(F)F)cc2)c(F)cc1OCCO [Compound I-276],0.135,0.267,
Cn1ncc(Br)c1-c1cc(Nc2ccc(OC(F)(F)F)cn2)ncc1OCCO [Compound I-277],,0.217,0.186
Cn1ncc(Br)c1-c1nc(Nc2ccc(Cl)cn2)c(F)cc1OCCO [Compound I-278],0.203,3.56,

# Continued, in another order:
"Ki [1, 3] [nM]",Ki [2] [nM],Compound,Ki [1] [nM]
0.306,1.94,Cn1ncc(Br)c1-c1nc(Nc2ccc(C(F)(F)F)cn2)c(F)cc1OCCO [Compound I-279],
0.312,1.58,Cn1ncc(Br)c1-c1nc(Nc2ccc(OC(F)(F)F)cn2)c(F)cc1OCCO [Compound I-280],
0.668,6.55,Cn1ncc(Br)c1-c1cc(Nc2ncc(C3CC3)cn2)ncc1OCCO [Compound I-281],
0.223,6.19,Cc1cnn(C)c1-c1nc(Nc2ccc(Cl)cc2F)c(F)cc1OCCO [Compound I-282],
0.267,2.41,Cc1cnn(C)c1-c1nc(Nc2ccc(C(F)(F)F)cc2)c(F)cc1OCCO [Compound I-283],
0.301,2.07,Cn1ncc(Br)c1-c1cc(Nc2ccc(Cl)cn2)ncc1OCCO [Compound I-284],
0.299,7.69,Cn1ncc(Br)c1-c1cc(Nc2nc3ccccc3s2)ncc1OCCO [Compound I-285],
0.6,3.22,Cn1ncc(Br)c1-c1cc(Nc2ncc(OC(F)F)cn2)ncc1OCCO [Compound I-286],
0.28,0.266,Cn1ncc(Br)c1-c1cc(Nc2ncc(OC(F)(F)F)cc2F)ncc1OCCO [Compound I-287],
0.387,0.78,Cn1ncc(Br)c1-c1cc(Nc2ccc(OC(F)F)cn2)ncc1OCCO [Compound I-288],
0.793,60.2,Cn1ncc(Br)c1-c1nc(Nc2cnc(C(F)(F)F)nc2)c(F)cc1OCCO [Compound I-289],
0.438,17.6,Cn1ncc(Br)c1-c1nc(Nc2ccc(C(F)(F)F)nc2)c(F)cc1OCCO [Compound I-290],
0.423,16.4,Cn1ncc(Br)c1-c1cc(Nc2nc3ccccc3o2)ncc1OCCO [Compound I-291],
0.385,2.4,Cc1cnn(C)c1-c1cc(Nc2ncc(OC(F)(F)F)cc2F)ncc1OCCO [Compound I-292],
0.259,3.67,Cc1cnn(C)c1-c1cc(Nc2ccc(OC(F)(F)F)cn2)ncc1OCCO [Compound I-293],
0.395,2.37,Cn1ncc(Br)c1-c1nc(Nc2ccc(OC(F)F)cn2)c(F)cc1OCCO [Compound I-294],
0.851,7.58,Cc1nc(C)c(-c2cc(Nc3ccc(OC(F)(F)F)cn3)ncc2OCCO)c(C)n1 [Compound I-295],
0.349,3.02,Cn1ncc(Br)c1-c1cc(Nc2ncc(OC(F)(F)F)cn2)ncc1OCCO [Compound I-296],
2.07,4.37,Cc1nc(C)c(-c2cc(Nc3ccc(C4(C(F)(F)F)CC4)cn3)ncc2OCCO)c(C)n1 [Compound I-297],
0.303,3.15,Cc1nc(C)c(-c2cc(Nc3ccc(-c4ccccc4)cn3)ncc2OCCO)c(C)n1 [Compound I-298],
0.271,0.352,Cn1ncc(Br)c1-c1cc(Nc2ncc(OC(F)F)cc2F)ncc1OCCO [Compound I-299],
1.33,7.17,Cc1nc(C)c(-c2cc(Nc3ncc(OC(F)(F)F)cc3F)ncc2OCCO)c(C)n1 [Compound I-300],
0.189,1.38,Cn1ncc(Br)c1-c1cc(Nc2ccc(OC(C)(F)F)cn2)ncc1OCCO [Compound I-301],
1.08,6.21,Cc1nc(C)c(-c2cc(Nc3cc(OC(F)F)c(Cl)cn3)ncc2OCCO)c(C)n1 [Compound I-302],
0.379,0.278,Cc1nc(C)c(-c2cc(Nc3ccc(-c4ccc(C(F)(F)F)cc4)cn3)ncc2OCCO)c(C)n1 [Compound I-303],
0.169,0.644,Cn1ncc(Cl)c1-c1cc(Nc2ncc(OC(F)F)cc2F)ncc1OCCO [Compound I-304],
0.188,0.585,Cn1ncc(Cl)c1-c1cc(Nc2ncc(OC(F)(F)F)cc2F)ncc1OCCO [Compound I-305],
